The values below come from patent publication US10596162B2 (WYETH LLC, priority 2005, dated 2020).

Assay [1] concerns NCI-H1650 cells. The experiment in a line: Generation of drug-resistant NCI-H1650 colonies. Type of assay: cell-based. The settings on record: for generation of drug-resistant clones in vitro: NCI-H1650, irreversible inhibitors at concentrations above 10 μM, even after ethyl methane sulfonate mutagenesis.
For assay [2], the system named is EGFR autophosphorylation (Y1068), AKT and MAPK phosphorylation in NCI-H1650 cells. Kind of assay: Immunoblotting of EGFR signaling in parental cells. To be noted: delE746-A750 EGFR. It counts as cell-based.
Experimental: Viable cells were counted 72 h after treatment with double-stranded RNA and are shown as a fraction relative to cells treated with nonspecific siRNA, with standard deviations based on triplicate samples. […] Rhodamine-tagged EGF is used to label EGFR at 5 and 20 rain, after addition of ligand. […] (Zeiss microscope, ×63 magnification).
(§1) Immunoblotting and Signaling Studies. […] Lysates were prepared in 2× gel loading buffer, sonicated, boiled, and then separated by 10% SDS/PAGE, followed by electrotransfer to polyvinylidene fluoride (PVDF) membranes, and immunoblotting. Antibodies used were phospho-EGFR Y1068 and phospho-mitogen-activated protein kinase (MAPK) (Cell Signaling Technology, Beverly, Mass.), phospho-AKT (BioSource International, Camarillo, Calif.), and total EGFR, MAPK, AKT, and tubulin (Santa Cruz Biotechnology).
Assay [3] deals with EGFR autophosphorylation, AKT and MAPK phosphorylation in NCI-H1975 cells (L858R and T790M EGFR). Kind of assay: Immunoblotting of EGFR signaling in T790M cell line. Type of assay: cell-based.
Experimental: Total EGFR, AKT, and MAPK are shown as loading controls.
as §1
The subject of assay [4] is NCI-H1650 cells (delE746-A750 EGFR). Kind of assay: Proliferation/cell killing of bronchoalveolar cancer cell line, crystal violet staining. To be noted: NCI-H1650 vs NCI-H1666.
Assay [5] concerns the target ERBB2 (Homo sapiens, UniProt P04626). To be noted: read-out: IC50 for ERBB2; cited from earlier work.

pIC50: −log10 of the molar value.

ERBB2, sequence (P04626 23-1255): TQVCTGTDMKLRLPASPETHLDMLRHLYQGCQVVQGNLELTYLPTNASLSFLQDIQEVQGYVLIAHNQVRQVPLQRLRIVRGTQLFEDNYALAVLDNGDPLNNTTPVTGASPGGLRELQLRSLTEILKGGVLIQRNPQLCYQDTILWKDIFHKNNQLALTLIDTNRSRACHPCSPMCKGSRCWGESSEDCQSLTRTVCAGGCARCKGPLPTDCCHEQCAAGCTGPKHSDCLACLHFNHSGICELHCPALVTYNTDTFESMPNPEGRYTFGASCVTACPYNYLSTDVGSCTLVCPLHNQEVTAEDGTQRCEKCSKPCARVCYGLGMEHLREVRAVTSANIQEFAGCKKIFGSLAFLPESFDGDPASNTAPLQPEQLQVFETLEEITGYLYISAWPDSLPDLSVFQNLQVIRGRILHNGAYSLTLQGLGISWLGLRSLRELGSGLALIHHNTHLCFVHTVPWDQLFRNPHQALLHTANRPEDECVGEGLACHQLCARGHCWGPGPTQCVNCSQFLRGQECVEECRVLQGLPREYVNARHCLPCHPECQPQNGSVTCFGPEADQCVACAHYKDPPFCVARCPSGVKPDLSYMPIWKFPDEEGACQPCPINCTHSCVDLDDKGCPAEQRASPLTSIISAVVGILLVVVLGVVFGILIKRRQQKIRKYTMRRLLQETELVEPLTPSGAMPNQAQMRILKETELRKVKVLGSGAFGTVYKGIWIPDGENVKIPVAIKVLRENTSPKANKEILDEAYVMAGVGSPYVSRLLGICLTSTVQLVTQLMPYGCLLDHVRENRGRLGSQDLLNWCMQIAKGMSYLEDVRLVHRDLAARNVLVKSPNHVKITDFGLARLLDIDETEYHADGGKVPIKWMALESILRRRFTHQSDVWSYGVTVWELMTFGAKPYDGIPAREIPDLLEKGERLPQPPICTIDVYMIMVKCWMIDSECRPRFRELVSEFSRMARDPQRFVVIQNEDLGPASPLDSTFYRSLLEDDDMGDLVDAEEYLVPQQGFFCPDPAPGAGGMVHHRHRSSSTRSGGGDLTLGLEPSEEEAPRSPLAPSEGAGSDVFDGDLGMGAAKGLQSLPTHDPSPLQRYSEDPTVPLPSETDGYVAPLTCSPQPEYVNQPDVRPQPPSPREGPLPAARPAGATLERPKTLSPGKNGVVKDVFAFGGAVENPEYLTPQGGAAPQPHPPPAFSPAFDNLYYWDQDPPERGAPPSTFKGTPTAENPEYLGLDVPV

Consider `COc1cc2ncnc(Nc3ccc(F)c(Cl)c3)c2cc1OCCCN1CCOCC1` [gefitinib, Gefitinib, reference compound], for which the “frequency of drug-resistant colonies” value in assay [1] (20 μM gefitinib, irrespective of mutagen treatment) is listed as “≈ 10^−5”. The “generation of drug-resistant clones in vitro” value (shortened to “generation”) in assay [1] was “readily generated”.

With `CCOc1cc2ncc(C#N)c(Nc3ccc(OCc4cccc(F)c4)c(Cl)c3)c2cc1NC(=O)/C=C/CN(C)C` [HKI-357], the “effectiveness relative to gefitinib in suppressing EGFR autophosphorylation (Y1068), AKT and MAPK phosphorylation” value in assay [2] worked out at 10 fold. In addition, the “generation” value in assay [1] is “not readily generated”. In assay [3], the “suppression of ligand-induced EGFR autophosphorylation and downstream AKT and MAPK phosphorylation” value is on record as “considerably more effective than gefitinib”. The “killing of NSCLC cells harboring an EGFR mutation compared with cells expressing wild-type receptor” value in assay [4] is recorded as “increased cell killing”.

On to `CCOc1cc2ncc(C#N)c(Nc3ccc(F)c(Cl)c3)c2cc1NC(=O)/C=C/CN(C)C` [EKB-569], for which the “generation” value in assay [1] was “not readily generated”. For the same compound, the pIC50 in assay [5] was 5.89. The “killing of NSCLC cells harboring an EGFR mutation compared with cells expressing wild-type receptor” value in assay [4] is “increased cell killing”.
